Laboratory results published in US9426983B2, “Agrochemical composition and method for preparing the same” (priority 2007, dated 2016).

Experiment: Tebuconazole concentration in the sprayed composition, determined by chromatograph
Assay type: physicochemical
Protocol: After the storage period of two weeks, each of the concentrates A to E was diluted with water. 10 liters of spraying compositions were prepared using hard water (CIPAC standard water D, 342 ppm) in 3 different concentrations: 0.5, 1, and 2 times the recommended spraying concentration for each concentrate.
Each diluted composition was sprayed using a personal spraying machine and using one spray nozzle equipped with 200 mesh screen. A sample of each composition was collected leaving the spraying machine after spraying.
Further, every sample of the spray compositon was analyzed in a chromatograph to determine the concentration of tebuconazole in the composition as it would be reaching the locus to be treated. […]

CC(C)(C)C(O)(CCc1ccc(Cl)cc1)Cn1cncn1 (stereo not drawn) [Tebuconazole]
Tebuconazole concentration (0.5% dilution, 0 hr): 2064 ppm
Tebuconazole concentration (0.5% dilution, 1 hr): 2039 ppm
Tebuconazole concentration (0.5% dilution, 2 hr): 2009 ppm
Tebuconazole concentration (0.5% dilution, 3 hr): 1969 ppm
Tebuconazole concentration (0.5% dilution, 4 hr): 1924 ppm
Tebuconazole concentration (1.0% dilution, 0 hr): 4150 ppm
Tebuconazole concentration (1.0% dilution, 1 hr): 4123 ppm
Tebuconazole concentration (1.0% dilution, 2 hr): 4091 ppm
Tebuconazole concentration (1.0% dilution, 3 hr): 4052 ppm
Tebuconazole concentration (1.0% dilution, 4 hr): 4007 ppm
Tebuconazole concentration (2.0% dilution, 0 hr): 8300 ppm
Tebuconazole concentration (2.0% dilution, 1 hr): 8272 ppm
Tebuconazole concentration (2.0% dilution, 2 hr): 8237 ppm
Tebuconazole concentration (2.0% dilution, 3 hr): 8197 ppm
Tebuconazole concentration (2.0% dilution, 4 hr): 8152 ppm
